Experiments:
[1] = biological target: His-His-(EK)-hsBCLXL(2-197)[N197C] (Homo sapiens (Human), UniProt Q07817, N197C); assay: Fluorescence quenching assay; format: binding; details: 1 nM Cy5-labelled protein, 400 nM PUMA peptide, 2 hours at 23° C.; KI determined from IC50
From the text: Fluorescence quenching assay measures the change in fluorescence intensity of C-terminally Cy5-labelled BCL-xL protein, His-His-(EK)-hsBCLXL(2-197)[N197C] (UniProtKB®
which is linked in C-terminal region to the amino acid X which corresponds to a cysteine labelled on the sulfur with Sulfo-Cyanine5 from Lumiprobe GmbH catalogue number 13380, upon binding of a C-terminally labelled peptide derived from PUMA (UniProtKB® primary accession number Q9BXH1) having an aminoacid sequence (SEQ ID:04): [[…]] which is linked in C-terminal region to the amino acid X′ where X′ is cysteine labelled on the sulfur with TQ5WS from AAT Bioquest catalogue number 2079.
The addition of a compound which binds competitively to the same site as the peptide will result in an increase in the fluorescence intensity of the protein due to displacement of the fluorescence quencher.
An 11-point serial dilution of each compound was prepared in DMSO, the final buffer conditions were 10 mM 4-(2-hydroxyethyl)-1-piperazineethanesulfonic acid [HEPES], 150 mM NaCl, 0.05% Tween 20, pH 7.4 and 5% DMSO. The final protein concentration in the assay was 1 nM with the peptide present at 400 nM. The experiments were incubated for 2 hours at 23° C. before fluorescence intensity was measured on a Biotek SynergyNeo plate reader (Excitation 620 nm, emission 680 nm). […] The K1 values were determined from the IC50 values according to Cer et al, Nucleic Acids Res, 2009, Jul. 1; 37 (WebServer issue): W441-W445.

MOLT-4 cells = assay: MOLT-4 cell viability using MTT assay; format: cell-based; details: 48 h exposure
Experimental: MTT colorimetric assay is based on the mitochondrial reduction of tetrazolium salt by living cells.
Cells were cultured at 37° C. in a humidified atmosphere containing 5% CO2. […] At the end of incubation time, 15 μL of MTT solution (5 mg/ml) were added per well and the cells were incubated for another 4 h. […] IC50s were calculated using standard four-parametric curve fitting.

His-His-(EK)-hsBCLXL(2-197)[N197C], sequence (Q07817 2-197 N197C): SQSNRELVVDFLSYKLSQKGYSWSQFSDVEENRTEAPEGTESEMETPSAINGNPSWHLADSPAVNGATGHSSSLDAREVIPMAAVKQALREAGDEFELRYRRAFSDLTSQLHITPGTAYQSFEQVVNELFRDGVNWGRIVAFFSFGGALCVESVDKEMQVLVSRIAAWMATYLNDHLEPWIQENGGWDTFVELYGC

Row | Compound | Ki [1] | IC50 (MOLT-4 cells) | IC50 (MOLT-4 cells; Homo sapiens, MOLT-4, 48 h)
1 | Cc1c(Nc2nc3ccccc3s2)nnc2c1CCCN2c1ccc(-c2cnn(CC34CC5(C)CC(C)(C3)CC(OCCNCCC(O)CO)(C5)C4)c2C)c(C(=O)O)n1 (stereo in doubt) [Example 92, 6-{3-[(1,3-benzothiazol-2-yl)amino]-4-methyl-6,7-dihydropyrido[2,3-c]pyridazin-8(5H)-yl}-3-(1-{[3-(2-{[(3S)-3,4-dihydroxybutyl]amino}ethoxy)-5,7-dimethyladamantan-1-yl]methyl}-5-methyl-1H-pyrazol-4-yl)pyridine-2-carboxylic acid] | 1.7 pM | 4.58 nM | 
2 | CNCCCc1ccc(OCCCc2sc(N3CCCc4c3nnc(Nc3nc5ccccc5s3)c4C)nc2C(=O)O)c(F)c1 [Example 34, 2-{3-[(1,3-Benzothiazol-2-yl)amino]-4-methyl-5H,6H,7H,8H-pyrido[2,3-c]pyridazin-8-yl}-5-(3-{2-fluoro-4-[3-(methylamino)propyl]phenoxy}propyl)-1,3-thiazole-4-carboxylic acid] | 1.9 pM |  | 
3 | Cc1c(Nc2nc3ccccc3s2)nnc2c1CCCN2c1nc(C(=O)O)c(CCCOc2cc3c(cc2F)CN(C)CC3)s1 [Example 74, 2-{3-[(1,3-Benzothiazol-2-yl)amino]-4-methyl-5H,6H,7H,8H-pyrido[2,3-c]pyridazin-8-yl}-5-{3-[(7-fluoro-2-methyl-1,2,3,4-tetrahydroisoquinolin-6-yl)oxy]propyl}-1,3-thiazole-4-carboxylic acid] | 10 pM |  | 
4 | Cc1c(Nc2nc3ccccc3s2)nnc2c1CCCN2c1nc(C(=O)O)c(CCCOc2ccc(I)cc2F)s1 [Example 77, 2-[3-(1,3-Benzothiazol-2-ylamino)-4-methyl-6,7-dihydro-5H-pyrido[2,3-c]pyridazin-8-yl]-5-[3-(2-fluoro-4-iodo-phenoxy)propyl]thiazole-4-carboxylic acid] | 170 pM |  | 226 nM
5 | Cc1c(Nc2nc3ccccc3s2)nnc2c1CCCN2c1nc(C(=O)O)c(CCCOc2cc(C#CCN(C)C)ccc2F)s1 [Example 78, 2-[3-(1,3-Benzothiazol-2-ylamino)-4-methyl-6,7-dihydro-5H-pyrido[2,3-c]pyridazin-8-yl]-5-[3-[5-[3-(dimethylamino)prop-1-ynyl]-2-fluoro-phenoxy]propyl]thiazole-4-carboxylic acid] | 23 pM |  | 2.46 nM
6 | Cc1c(Nc2nc3ccccc3s2)nnc2c1CCCN2c1nc(C(=O)O)c(CCCOc2ccc(C#CCN3CCNCC3)cc2F)s1 [Example 79, 2-[3-(1,3-Benzothiazol-2-ylamino)-4-methyl-6,7-dihydro-5H-pyrido[2,3-c]pyridazin-8-yl]-5-[3-[2-fluoro-4-(3-piperazin-1-ylprop-1-ynyl)phenoxy]propyl]thiazole-4-carboxylic acid] | 5.2 pM |  | 1.01 nM
7 | Cc1c(Nc2nc3ccccc3s2)nnc2c1CCCN2c1ccc(-c2cnn(CC34CC5CC(C3)CC(OCCNCC[C@H](O)CO)(C5)C4)c2C)c(C(=O)O)n1 [Example 160, 6-[3-(1,3-benzothiazol-2-ylamino)-4-methyl-6,7-dihydro-5H-pyrido[2,3-c]pyridazin-8-yl]-3-[1-[[3-[2-[[(3S)-3,4-dihydroxybutyl]amino]ethoxy]-1-adamantyl]methyl]-5-methyl-pyrazol-4-yl]pyridine-2-carboxylic acid] |  |  | > 100 nM
8 | COc1ccc2sc(Nc3nnc4c(c3C)CCCN4c3ccc(-c4cnn(CC56CC7(C)CC(C)(C5)CC(OCCN5CCCC5)(C7)C6)c4C)c(C(=O)O)n3)nc2c1 [Example 180, 3-[1-[[3,5-dimethyl-7-(2-pyrrolidin-1-ylethoxy)-1-adamantyl]methyl]-5-methyl-pyrazol-4-yl]-6-[3-[(5-methoxy-1,3-benzothiazol-2-yl)amino]-4-methyl-6,7-dihydro-5H-pyrido[2,3-c]pyridazin-8-yl]pyridine-2-carboxylic acid] |  |  | 0.13 nM

The remaining lines, values ahead:

Row | Ki [1] | IC50 (MOLT-4 cells) | IC50 (MOLT-4 cells; Homo sapiens, MOLT-4, 48 h) | Compound
9 | 3.7 pM |  | 4.11 nM | Cc1c(Nc2nc3ccccc3s2)nnc2c1CCCN2c1nc(C(=O)O)c(CCCOc2ccc(CCCN3CCCC3)cc2F)s1 [Example 69, 2-[3-(1,3-Benzothiazol-2-ylamino)-4-methyl-6,7-dihydro-5H-pyrido[2,3-c]pyridazin-8-yl]-5-[3-[2-fluoro-4-(3-pyrrolidin-1-ylpropyl)phenoxy]propyl]thiazole-4-carboxylic acid]
10 | 80 pM |  | 13.9 nM | Cc1c(Nc2nc3ccccc3s2)nnc2c1CCCN2c1nc(C(=O)O)c(CCCOc2ccc(CCCN3C[C@@H]4[C@H](C3)C4(F)F)cc2F)s1 [Example 72, 2-[3-(1,3-Benzothiazol-2-ylamino)-4-methyl-6,7-dihydro-5H-pyrido[2,3-c]pyridazin-8-yl]-5-[3-[4-[3-[(1R,5S)-6,6-difluoro-3-azabicyclo[3.1.0]hexan-3-yl]propyl]-2-fluoro-phenoxy]propyl]thiazole-4-carboxylic acid]
11 | 3.3 pM |  | 9.78 nM | CNCCCCc1ccc(OCCCc2sc(N3CCCc4c3nnc(Nc3nc5ccccc5s3)c4C)nc2C(=O)O)c(F)c1 [Example 75, 2-{3-[(1,3-Benzothiazol-2-yl)amino]-4-methyl-5H,6H,7H,8H-pyrido[2,3-c]pyridazin-8-yl}-5-(3-{2-fluoro-4-[4-(methylamino)butyl]phenoxy}propyl)-1,3-thiazole-4-carboxylic acid]
12 | 1.8 pM |  | 0.74 nM | Cc1c(Nc2nc3ccccc3s2)nnc2c1CCCN2c1nc(C(=O)O)c(CCCOc2ccc(C#CCNCCN(C)C)cc2F)s1 [Example 76, 2-[3-(1,3-Benzothiazol-2-ylamino)-4-methyl-6,7-dihydro-5H-pyrido[2,3-c]pyridazin-8-yl]-5-[3-[4-[3-[2-(dimethylamino)ethylamino]prop-1-ynyl]-2-fluoro-phenoxy]propyl]thiazole-4-carboxylic acid]
13 | 44 pM |  |  | Cc1c(Nc2nc3ccccc3s2)nnc2c1CCCN2c1nc(C(=O)O)c(CCCOc2ccc(C#CCN(CC(C)C)CC(C)C)cc2F)s1 [Example 87, 2-[3-(1,3-Benzothiazol-2-ylamino)-4-methyl-6,7-dihydro-5H-pyrido[2,3-c]pyridazin-8-yl]-5-[3-[4-[3-(diisobutylamino)prop-1-ynyl]-2-fluoro-phenoxy]propyl]thiazole-4-carboxylic acid]
14 |  |  | 5.78 nM | Cc1c(Nc2nc3ccccc3s2)nnc2c1CCCN2c1ccc(-c2cnn(CC34CC5(C)CC(C)(C3)CC(OCCN(CCCO)CCCO)(C5)C4)c2C)c(C(=O)O)n1 [Example 137, 6-[3-(1,3-benzothiazol-2-ylamino)-4-methyl-6,7-dihydro-5H-pyrido[2,3-c]pyridazin-8-yl]-3-[1-[[3-[2-[bis(3-hydroxypropyl)amino]ethoxy]-5,7-dimethyl-1-adamantyl]methyl]-5-methyl-pyrazol-4-yl]pyridine-2-carboxylic acid]
15 |  |  | 1.01 nM | Cc1c(Nc2nc3ccccc3s2)nnc2c1CCCN2c1ccc(-c2cnn(CC34CC5(C)CC(C)(C3)CC(OCCNCCCO)(C5)C4)c2C)c(C(=O)O)n1 [Example 138, 6-[3-(1,3-benzothiazol-2-ylamino)-4-methyl-6,7-dihydro-5H-pyrido[2,3-c]pyridazin-8-yl]-3-[1-[[3-[2-(3-hydroxypropylamino)ethoxy]-5,7-dimethyl-1-adamantyl]methyl]-5-methyl-pyrazol-4-yl]pyridine-2-carboxylic acid]
16 | 1.7 pM |  |  | Cc1c(Nc2nc3cc(O)ccc3s2)nnc2c1CCCN2c1ccc(-c2cnn(CC34CC5(C)CC(C)(C3)CC(OCCN3CCCC3)(C5)C4)c2C)c(C(=O)O)n1 [Example 152, 3-[1-[[3,5-dimethyl-7-(2-pyrrolidin-1-ylethoxy)-1-adamantyl]methyl]-5-methyl-pyrazol-4-yl]-6-[3-[(5-hydroxy-1,3-benzothiazol-2-yl)amino]-4-methyl-6,7-dihydro-5H-pyrido[2,3-c]pyridazin-8-yl]pyridine-2-carboxylic acid]
17 |  |  | 0.449 nM | Cc1c(Nc2nc3ccccc3s2)nnc2c1CCCN2c1ccc(-c2cnn(CC34CC5CC(C3)CC(OCCN(C)C)(C5)C4)c2C)c(C(=O)O)n1 [Example 154, 6-[3-(1,3-benzothiazol-2-ylamino)-4-methyl-6,7-dihydro-5H-pyrido[2,3-c]pyridazin-8-yl]-3-[1-[[3-[2-(dimethylamino)ethoxy]-1-adamantyl]methyl]-5-methyl-pyrazol-4-yl]pyridine-2-carboxylic acid]
18 |  |  | 0.543 nM | Cc1c(Nc2nc3ccccc3s2)nnc2c1CCCN2c1ccc(-c2cnn(CC34CC5CC(C3)CC(OCCN3CCCC3)(C5)C4)c2C)c(C(=O)O)n1 [Example 155, 6-[3-(1,3-benzothiazol-2-ylamino)-4-methyl-6,7-dihydro-5H-pyrido[2,3-c]pyridazin-8-yl]-3-[5-methyl-1-[[3-(2-pyrrolidin-1-ylethoxy)-1-adamantyl]methyl]pyrazol-4-yl]pyridine-2-carboxylic acid]

— patent US12570648B2, “6,7-dihydro-5H-pyrido[2,3-c]pyridazine derivatives and related compounds as Bcl-xL protein inhibitors and pro-apoptotic agents for treating cancer” (LES LABORATOIRES SERVIER, priority 2019, dated 2026)
